The nature of data set [1]: Apparent permeability coefficient (Papp) for apical to basolateral flux was determined in MadinDarby Canine Kidney cells. Format: ADME, Canis lupus familiaris. The note with it: dog, MDCK.
Data set [2] in a line: Oral bioavailability in rat (male Wistar). The note with it: in vivo. It is filed as ADME, organism-based.
A short description of data set [3]: Tested for the total clearance of the compound. Format: ADME, organism-based. The conditions noted are these: in vivo.
Data set [4] in a line: Tested for iv terminal half-life dosed as a solution in male Han Wistar rats. The note with it: rat, in vivo. It is filed as ADME, organism-based.
Data set [5] can be described thus: Steady state volume of distribution (Vsss) was determined. Format: ADME, organism-based. The conditions noted are these: in vivo; read-out: Vsss.
A short description of data set [6]: Partition coefficient (logP). It is filed as physicochemical. The note with it: octanol/water.
The nature of data set [7]: Tested for equilibrium solubility in fasted state-simulated intestinal fluid at pH 6.8. It is filed as ADME. The note with it: fasted state-simulated intestinal fluid (FS-SIF).

Values after ≈ are worked out from the molar mass of the structure shown.

For orientation: Papp A→B means how fast a substance crosses the layer from the apical side. Usually bioavailability stands for the share of a dose that reaches the circulation, judged against a reference dose that is usually intravenous. Higher therefore signals much systemic uptake. By clearance is commonly meant the rate of elimination divided by the concentration. What is called half-life is the time needed for the level to fall by half in the phase considered. A higher half-life goes with slow decline. What is called logP is a log measure of how a compound divides between an organic and an aqueous phase. Lower therefore signals lower lipophilicity. Usually thermodynamic solubility stands for solubility found after equilibrating the solid with the medium.

Turning to `CCCC[C@H](NC(=O)OC(C(C)C)C(C)C)C(=O)C(=O)NCc1ccno1`, in data set [1], the Papp A→B worked out at 41 ×10⁻⁶ cm/s. In data set [2], this compound showed a bioavailability of 32%. Moreover, the clearance in data set [3] was determined as 29 mL/min/kg. The half-life in data set [4] is 52 min. Besides, the Vd in data set [5] came to 1.2 L/kg. Further, the logP in data set [6] was 5. The same compound returned a thermodynamic solubility in data set [7] of 63 µg/mL (≈ 165 µM).
Regarding `CCCC[C@H](NC(=O)OC(C(C)C)C(C)C)C(=O)C(=O)NCc1nnco1`, the Papp A→B in data set [1] worked out at 51 ×10⁻⁶ cm/s. In data set [2], this compound returned a bioavailability of 16%. Besides, in data set [3], the clearance was found to be 33 mL/min/kg. Besides, the half-life in data set [4] worked out at 21 min. For the same compound, in data set [5], the Vd is 0.98 L/kg. For the same compound, the log partition coefficient (logP) in data set [6] came out at 3.4. The solubility (thermodynamic) in data set [7] was 150 µg/mL (≈ 392 µM).
On to `CCCC[C@H](NC(=O)OC(C(C)C)C(C)C)C(=O)C(=O)NCc1ccccn1`, for which the apical-to-basolateral permeability (Papp A→B) in data set [1] came out at 51 ×10⁻⁶ cm/s. The bioavailability in data set [2] was determined as 10%. The compound also registered a clearance in data set [3] of 5.2 mL/min/kg. The compound also had a half-life in data set [4] of 77 min. The Vd in data set [5] was found to be 0.24 L/kg. Besides, the solubility (thermodynamic) in data set [7] was 28 µg/mL (≈ 71.5 µM).
With `CCCC[C@H](NC(=O)OC(C(C)C)C(C)C)C(=O)C(=O)N[C@H](C)c1ccccc1`, the apical-to-basolateral permeability (Papp A→B) in data set [1] was 5.7 ×10⁻⁶ cm/s. The same compound showed a bioavailability in data set [2] of 3.1%. The same compound came in with a clearance in data set [3] of 8.7 mL/min/kg. Moreover, the Vd in data set [5] stood at 1.9 L/kg. Besides, the logP in data set [6] is 7.3. The thermodynamic solubility in data set [7] was 12 µg/mL (≈ 29.7 µM).
For `CCCC[C@H](NC(=O)OC(C(C)C)C(C)C)C(=O)C(=O)N[C@H]1CCCNC1=O`, the Papp A→B in data set [1] turned out to be 31 ×10⁻⁶ cm/s. For the same compound, the bioavailability in data set [2] came out at 20%. In data set [3], this compound returned a clearance of 44 mL/min/kg. The same compound gave a half-life in data set [4] of 220 min. Moreover, in data set [5], the Vd was 1.6 L/kg. In addition, the logP in data set [6] came to 4.4. In addition, in data set [7], the thermodynamic solubility is 350 µg/mL (≈ 880 µM).
For `CCCC[C@H](NC(=O)OC(C(C)C)C(C)C)C(=O)C(=O)NCc1ccncc1`, the bioavailability in data set [2] was 5.2%. Also, in data set [3], the clearance stood at 7.1 mL/min/kg. The half-life in data set [4] was found to be 240 min. Also, in data set [5], the Vd amounted to 0.09 L/kg. The thermodynamic solubility in data set [7] is 62 µg/mL (≈ 158 µM).
`CNC(=O)NCCCC[C@H](NC(=O)OC(C(C)C)C(C)C)C(=O)C(=O)N[C@H](C)c1ccccc1` yielded a bioavailability in data set [2] of 10%. The clearance in data set [3] came to 24 mL/min/kg. Further, the half-life in data set [4] was found to be 260 min. Moreover, in data set [5], the Vd came to 1.5 L/kg. Moreover, the log partition coefficient (logP) in data set [6] amounted to 5.5. Besides, the thermodynamic solubility in data set [7] is 32 µg/mL (≈ 67.1 µM).
With `CCCC[C@H](NC(=O)OC(C(C)C)C(C)C)C(=O)C(=O)NCc1cncs1`, the Papp A→B in data set [1] is 48 ×10⁻⁶ cm/s. The bioavailability in data set [2] is 55%. Also, the clearance in data set [3] was found to be 28 mL/min/kg. The compound further registered a half-life in data set [4] of 150 min. Also, in data set [5], the Vd is 1.3 L/kg. In addition, in data set [6], the logP turned out to be 5.3. In addition, the solubility (thermodynamic) in data set [7] was 51 µg/mL (≈ 128 µM).

The values are drawn from ChEMBL document CHEMBL1148252, “Orally bioavailable small molecule ketoamide-based inhibitors of cathepsin K” (Bioorg Med Chem Lett, 2004).
